In one series the test system is U2OS cells. Briefly: Clonogenic survival assay of oligonucleotide-transfected cells. Format: cell-based, human. On the procedure: To address concerns related to potential non-specific effects of ATXKI expression on cellular functions, an antisense oligonucleotide-based approach to reduce the level of ATX expression in U2OS cells was developed. The cells were mock transfected, or transfected with sense (S) or antisense (AS) oligonucleotides, and then treated for 24 h with various genotoxic agents. The cells were then trypsinized and replated, and clonogenic survival was analyzed after 10 days in culture. The results obtained with AS-treated cells were strikingly similar to those obtained with the ATXKI-expressing cells (FIGS. 2A-C). While transfection of U2OS cells with the S oligonucleotide reduced the basal level of colony outgrowth by 25%, treatment with the AS oligonucleotide decreased basal clonogenic activity by 75% (FIG. 2C, right panel). […] The reduction in ATX protein caused by AS treatment ranged from 50-90% in over 10 independent trials.
(§1) To prepare recombinant HA-tagged ATX and ATM proteins, HEK 293T cells were plated onto 60-mm dishes (9×10^5 cells per dish), and were transfected with 5 μg pcDNA3.1 (empty vector), HA-ATXWT, HA-ATXKI, or HA-ATMWT plasmid DNAS. Transfections were performed with the Fugene 6 transfection reagent (Roche), according to the manufacturer's instructions. For NMD assays (see Example 9, below), U2OS cells were seeded onto 100 mm dishes (1×10^6 cells per dish). […]
U2OS cells were seeded into 60 mm dishes (1×10^5 cells per dish) in complete medium. […] To quantitate the outgrowth of drug-resistant cells, the Coomassie Blue-bound protein was solubilized at 37° C. with 0.1 M NaOH, and the soluble material was analyzed by absorbance spectroscopy at a wavelength of 590 nm. […] Drug-resistant colonies were stained with Coomassie Blue after 10 days in culture, and the samples were analyzed with Image Pro Plus software to quantitate cell density. […]

The subject of the next series is ATX. Briefly: Protein levels in oligonucleotide-treated cells by immunoblotting. Format: cell-based, human. The note with it: U2OS. As to the method: as §1, with “dish). After 20 h, cells were transfected with 1.5 μg of pmCMV-Gl test plasmid, either Norm or 39Ter (Ishigaki et al., 2001); 1.5 μg of phCMV-MUP reference plasmid (Ishigaki et al., Cell 106:607-617 (2001)); and 7 μg of empty plasmid (pcDNA 3.1), plasmids encoding HA-ATMWT, HA-ATMKI, HA-ATXWT or HA-ATXKI.” for “dish).”
Since p53 plays a central role in activation of the G1 checkpoint, and influences S, G2, and M checkpoints as well (Giaccia and Kastan, Genes & Development 12:2973-2983 (1998); Ko and Prives, supra, 1996), a functional deficiency of ATX might alter the cell-cycle arrest responses to IR and other genotoxic agents. To test this possibility, U2OS cells were pre-treated with S or AS oligonucleotides, exposed to IR, and cell-cycle distributions at 24 h post-irradiation were determined. […]

Take “5′-AGCAAGCTCCCTCCTGTCTC-3′ (all phosphorothioate, sugars by position and methylation of C not given here) [AS oligonucleotide, ATX antisense phosphorothioate oligonucleotide complementary to ATX nucleotides 210-229]”: in the series on U2OS cells (IR and UV treatments), the “sensitivity to suppressive effects of IR and UV on clonogenic survival” value is “significantly more sensitive”. For the same substance, in the series on U2OS cells (non-irradiated, 10 days in culture), the “decrease of basal level of colony outgrowth (basal clonogenic activity)” value is recorded as 75%. In addition, the “expression levels of control proteins ATM and PLC-γ1” value in the series on ATX (immunoblot) is “no significant change”. In the series with ATX (over 10 independent trials), the “reduction in ATX protein” value is given as 50-90%.
